Results as given in US10294229B2, “Heteroaryl substituted aminopyridine compounds” (BRISTOL-MYERS SQUIBB COMPANY, priority 2015, dated 2019).

Tests used:
[1] = target: IRAK4 (Homo sapiens (Human), UniProt Q9NWZ3); experiment: IRAK4 Inhibition Assay; type: biochemical; conditions: ATP 500 μM; IRAK4 0.6 nM
Outline: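 Readout: electrophoretic (LabChip) separation of fluorescent peptide substrate from phosphorylated product after EDTA quench. Reactions ran 60 min at room temperature with 0.6 nM IRAK4, 1.5 μM peptide and 500 μM ATP; inhibition referenced to no-enzyme (100%) and vehicle (0%) controls.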

[2] = Caco-2 Permeability Assay; type: in vitro ADME; conditions: human, Caco-2, test compound 3 μM
Protocol: Caco-2 Permeability Assay
Thirteen to 27 days prior to assay, Caco-2 cells were seeded onto collagen-coated polycarbonate filter membranes in 24-well transwell plates at a density of 1.45×10^5 cells/cm^2, approximately 4.8×10^4 cells per well. The cells were grown in a culture medium consisting of DMEM supplemented with 10% fetal bovine serum, 10 mM HEPES, 1% nonessential amino acids, 2 mM L-glutamine, 100 U/mL penicillin-G, and 100 μg/mL streptomycin. The culture medium was replaced every 3 days and the cells were maintained at 37° C. in a 95% relative humidity and 5% CO2 atmosphere. The cells were evaluated for tight junction formation just prior to assay. The test compound was solubilized to 10 mM in 100% DMSO and diluted to 3 μM in assay buffer. Permeability studies were initiated by adding 200 μL assay buffer plus/minus compound to the apical transwell compartment and 600 μL assay buffer plus/minus compound to the basolateral compartment of the 24-well transwell low-binding cluster plate. For apical-to-basolateral (A to B) permeability (absorptive direction), buffer containing compound was placed in the apical compartment (donor wells), while buffer alone was placed in the corresponding basolateral compartments (receiver wells). For basolateral-to-apical (B to A) permeability (secretive direction), buffer containing compound was placed in the basolateral compartment (donor wells), while buffer alone was placed in the corresponding apical compartments (receiver wells). Transwells were then incubated for 2 hours at 37° C. in a 95% relative humidity and 5% CO2 atmosphere with gentle agitation. Following incubation, 100 μL was removed from each apical and basolateral compartment and transferred to 96-well low binding plates that had been previously loaded with 100 μL/well of acetonitrile containing 250 nM propranolol, 250 nM diclofenac, and 500 nM tolbutamide as internal standards. The samples were subsequently analyzed by LC-MS/MS to determine concentrations of compound.

[3] = system: Human whole blood stimulated with a TLR2 agonist (lipoteichoic acid), IL-6 levels; experiment: IRAK4 Whole Blood Assay; type: cell-based; conditions: lipoteichoic acid 10 μg/mL
Outline: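 IL-6 was quantified by cytometric bead assay in supernatants of human blood (ACD-A) stimulated for 5 h with lipoteichoic acid at 10 μg/mL final. Compound exposure preceded stimulation for 60 min at 37 °C, 5% CO2.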

Sequence of IRAK4 (Q9NWZ3 whole entry, species assumed): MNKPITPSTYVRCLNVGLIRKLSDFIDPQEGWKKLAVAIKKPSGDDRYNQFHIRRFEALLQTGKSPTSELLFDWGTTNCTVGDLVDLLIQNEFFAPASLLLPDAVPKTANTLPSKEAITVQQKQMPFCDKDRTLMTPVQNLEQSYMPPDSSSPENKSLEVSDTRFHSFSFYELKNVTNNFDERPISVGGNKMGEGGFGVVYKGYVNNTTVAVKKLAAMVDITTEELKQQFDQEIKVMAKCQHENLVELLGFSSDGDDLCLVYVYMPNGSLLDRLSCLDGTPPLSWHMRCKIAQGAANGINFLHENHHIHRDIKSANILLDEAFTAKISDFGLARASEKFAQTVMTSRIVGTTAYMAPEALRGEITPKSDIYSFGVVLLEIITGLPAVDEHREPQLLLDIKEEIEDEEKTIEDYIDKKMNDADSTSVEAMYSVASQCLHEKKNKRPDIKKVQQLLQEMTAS

CC(C)Nc1cc(-n2ncc3cc(C#N)cnc32)ncc1-c1cn([C@@H]2CCCC[C@@]2(C)O)nn1 (relative stereo) [Example 64, 1-(5-(1-((1R,2R)-2-hydroxy-2-methylcyclohexyl)-1H-1,2,3-triazol-4-yl)-4-(isopropylamino)pyridin-2-yl)-1H-pyrazolo[3,4-b]pyridine-5-carbonitrile]
IC50 [1]: 5 nM | Papp at 2 h, 3 µM [2]: 14.8 ×10⁻⁶ cm/s

N#Cc1cnc2c(cnn2-c2cc(NC3CC3)c(-c3cn([C@@H]4CNCC[C@H]4O)nn3)cn2)c1 (relative stereo) [Example 207, 1-(4-(cyclopropylamino)-5-(1-((trans)-4-hydroxypiperidin-3-yl)-1H-1,2,3-triazol-4-yl)pyridin-2-yl)-1H-pyrazolo[3,4-b]pyridine-5-carbonitrile]
Papp at 2 h, 3 µM [2]: < 1.5 ×10⁻⁶ cm/s | EC50 ([3]; Homo sapiens): 1330 nM

CCCn1cc(-c2cnc(-n3cnc4cc(C#N)cnc43)cc2NC(C)C)nn1 [Example 40, 3-(4-(isopropylamino)-5-(1-propyl-1H-1,2,3-triazol-4-yl)pyridin-2-yl)-3H-imidazo[4,5-b]pyridine-6-carbonitrile]
IC50 [1]: 3 nM | Papp at 2 h, 3 µM [2]: 27.8 ×10⁻⁶ cm/s

CC(C)Nc1cc(-n2cnc3cc(C#N)cnc32)ncc1-c1cn(CCC(F)(F)F)nn1 [Example 42, 3-(4-(isopropylamino)-5-(1-(3,3,3-trifluoropropyl)-1H-1,2,3-triazol-4-yl)pyridin-2-yl)-3H-imidazo[4,5-b]pyridine-6-carbonitrile]
IC50 [1]: 5 nM | Papp at 2 h, 3 µM [2]: 5.7 ×10⁻⁶ cm/s

CCCn1cc(-c2cnc(-n3cnc4cc(C#N)cnc43)cc2Nc2cnn(CC)c2)nn1 [Example 59]
Papp at 2 h, 3 µM [2]: 20 ×10⁻⁶ cm/s

CC(C)Nc1cc(-n2ncc3cc(C#N)cnc32)ncc1-c1cn(C[C@@H](C)O)nn1 [Example 66, (R)-1-(5-(1-(2-hydroxypropyl)-1H-1,2,3-triazol-4-yl)-4-(isopropylamino)pyridin-2-yl)-1H-pyrazolo[3,4-b]pyridine-5-carbonitrile]
IC50 [1]: 16 nM | Papp at 2 h, 3 µM [2]: 5.9 ×10⁻⁶ cm/s

CC(C)Nc1cc(-n2ncc3cc(C#N)cnc32)ncc1-c1cn([C@H]2CCNC[C@H]2O)nn1 [Example 177, 1-(5-(1-((3R,4S)-3-hydroxypiperidin-4-yl)-1H-1,2,3-triazol-4-yl)-4-(isopropylamino)pyridin-2-yl)-1H-pyrazolo[3,4-b]pyridine-5-carbonitrile]
IC50 [1]: 13 nM | Papp at 2 h, 3 µM [2]: < 1.5 ×10⁻⁶ cm/s

CCCc1cn(-c2cnc(-n3cnc4cc(C#N)cnc43)cc2NC(C)C)nn1 [Example 278, 3-(4-(isopropylamino)-5-(4-propyl-1H-1,2,3-triazol-1-yl)pyridin-2-yl)-3H-imidazo[4,5-b]pyridine-6-carbonitrile]
IC50 [1]: 15 nM | Papp at 2 h, 3 µM [2]: 23.7 ×10⁻⁶ cm/s

CC(C)(O)CCc1cn(-c2cnc(-n3ncc4cc(C#N)cnc43)cc2NC2CCOC2)nn1 [Example 366, (S)-1-(5-(4-(3-hydroxy-3-methylbutyl)-1H-1,2,3-triazol-1-yl)-4-((tetrahydrofuran-3-yl)amino)pyridin-2-yl)-1H-pyrazolo[3,4-b]pyridine-5-carbonitrile]
IC50 [1]: 9 nM | EC50 [3]: 410 nM

CC(C)Nc1cc(-n2ncc3cnc(N)nc32)ncc1-n1cc(CCC(C)(C)O)nn1 [Example 380, 4-(1-(6-(6-amino-1H-pyrazolo[3,4-d]pyrimidin-1-yl)-4-(isopropylamino)pyridin-3-yl)-1H-1,2,3-triazol-4-yl)-2-methylbutan-2-ol]
IC50 [1]: 6 nM | EC50 [3]: 460 nM

CC(C)(O)CCc1cn(-c2cnc(-n3ncc4cc(C#N)cnc43)cc2NC(C)(C)CO)nn1 [Example 381, 1-(4-((1-hydroxy-2-methylpropan-2-yl)amino)-5-(4-(3-hydroxy-3-methylbutyl)-1H-1,2,3-triazol-1-yl)pyridin-2-yl)-1H-pyrazolo[3,4-b]pyridine-5-carbonitrile]
IC50 [1]: 2 nM | EC50 ([3]; Homo sapiens): 250 nM

CC(C)(O)CCc1cn(-c2cnc(-n3ncc4cc(C#N)cnc43)cc2NC2(C)CC2)nn1 [Example 383, 1-(5-(4-(3-hydroxy-3-methylbutyl)-1H-1,2,3-triazol-1-yl)-4-((1-methylcyclopropyl)amino)pyridin-2-yl)-1H-pyrazolo[3,4-b]pyridine-5-carbonitrile]
IC50 [1]: 2 nM | EC50 ([3]; Homo sapiens): 370 nM

CC(C)Nc1cc(-n2ncc3cc(C#N)cnc32)ncc1-n1cc(CC[C@@](C)(O)CO)nn1 [Example 388, (R)-1-(5-(4-(3,4-dihydroxy-3-methylbutyl)-1H-1,2,3-triazol-1-yl)-4-(isopropylamino)pyridin-2-yl)-1H-pyrazolo[3,4-b]pyridine-5-carbonitrile]
IC50 [1]: 6 nM | EC50 ([3]; Homo sapiens): 260 nM

CC(C)Nc1cc(-n2ncc3cc(C#N)cnc32)ncc1-c1cc(C2CNC2)no1 [Example 397, 1-(5-(3-(azetidin-3-yl)isoxazol-5-yl)-4-(isopropylamino)pyridin-2-yl)-1H-pyrazolo[3,4-b]pyridine-5-carbonitrile]
IC50 [1]: 5 nM | EC50 ([3]; Homo sapiens): 460 nM

COC(=O)N1CCC[C@@H](c2cc(-c3cnc(-n4ncc5cc(C#N)cnc54)cc3NC(C)C)on2)C1 [Example 408, methyl (R)-3-(5-(6-(5-cyano-1H-pyrazolo[3,4-b]pyridin-1-yl)-4-(isopropylamino)pyridin-3-yl)isoxazol-3-yl)piperidine-1-carboxylate]
IC50 [1]: 2 nM | EC50 ([3]; Homo sapiens): 490 nM

CC(C)Nc1cc(-n2ncc3cc(C#N)cnc32)ncc1-c1cc(C2CCCOC2)no1 (stereo not drawn) [Example 416, 1-(4-(isopropylamino)-5-(3-(tetrahydro-2H-pyran-3-yl)isoxazol-5-yl)pyridin-2-yl)-1H-pyrazolo[3,4-b]pyridine-5-carbonitrile]
IC50 [1]: 2 nM | EC50 ([3]; Homo sapiens): 480 nM

CC(C)Nc1cc(-n2ncc3cc(C#N)cnc32)ncc1-c1cc(C2CCOCC2)no1 [Example 418, 1-(4-(isopropylamino)-5-(3-(tetrahydro-2H-pyran-4-yl)isoxazol-5-yl)pyridin-2-yl)-1H-pyrazolo[3,4-b]pyridine-5-carbonitrile]
IC50 [1]: 3 nM | EC50 ([3]; Homo sapiens): 490 nM

CC(C)Nc1cc(-n2ncc3cc(C#N)cnc32)ncc1-c1cc(CCC(C)(C)O)no1 [Example 426, 1-(5-(3-(3-hydroxy-3-methylbutyl)isoxazol-5-yl)-4-(isopropylamino)pyridin-2-yl)-1H-pyrazolo[3,4-b]pyridine-5-carbonitrile]
IC50 [1]: 1 nM | EC50 ([3]; Homo sapiens): 340 nM

CC(C)Nc1cc(-n2ncc3cc(C#N)cnc32)ncc1-c1cc(CCC(C)(C)O)on1 [Example 429, 1-(5-(5-(3-hydroxy-3-methylbutyl)isoxazol-3-yl)-4-(isopropylamino)pyridin-2-yl)-1H-pyrazolo[3,4-b]pyridine-5-carbonitrile]
IC50 [1]: 2 nM | EC50 ([3]; Homo sapiens): 450 nM

CC(C)Nc1cc(-n2ncc3cc(C#N)cnc32)ncc1-c1cc([C@@H]2CCCCN2S(C)(=O)=O)on1 [Example 432, (S)-1-(4-(isopropylamino)-5-(5-(1-(methylsulfonyl)piperidin-2-yl)isoxazol-3-yl)pyridin-2-yl)-1H-pyrazolo[3,4-b]pyridine-5-carbonitrile]
IC50 [1]: 1 nM | EC50 ([3]; Homo sapiens): 370 nM

CC(C)Nc1cc(-n2ncc3cc(C#N)cnc32)ncc1-c1nnc(N[C@H]2CC[C@H](N)CC2)o1 [Example 434, 1-(5-(5-(((1R,4R)-4-aminocyclohexyl)amino)-1,3,4-oxadiazol-2-yl)-4-(isopropylamino)pyridin-2-yl)-1H-pyrazolo[3,4-b]pyridine-5-carbonitrile]
IC50 [1]: 4 nM | EC50 ([3]; Homo sapiens): 330 nM

CC(C)Nc1cc(-n2ncc3cc(C#N)cnc32)ncc1C1=NOC(CCC(C)(C)O)C1 (stereo not drawn) [Example 437, 1-(5-(5-(3-hydroxy-3-methylbutyl)-4,5-dihydroisoxazol-3-yl)-4-(isopropylamino)pyridin-2-yl)-1H-pyrazolo[3,4-b]pyridine-5-carbonitrile]
IC50 [1]: 2 nM | EC50 ([3]; Homo sapiens): 210 nM

CC(C)(O)CCC1CC(c2cnc(-n3ncc4cc(C#N)cnc43)cc2NCC(F)F)=NO1 (stereo not drawn) [Example 442, 1-(4-((2,2-difluoroethyl)amino)-5-(5-(3-hydroxy-3-methylbutyl)-4,5-dihydroisoxazol-3-yl)pyridin-2-yl)-1H-pyrazolo[3,4-b]pyridine-5-carbonitrile]
IC50 [1]: 4 nM | EC50 ([3]; Homo sapiens): 410 nM
